Measured values reported in patent publication US20110166142A1, “2-SUBSTITUTED ISOFLAVONOID COMPOUNDS, MEDICAMENTS AND USES” (priority 2007, published 2011).
Read-outs that look alike come from different tables or passages of the source.

Tests used:
MM200 = assay: Anti-cancer activity, melanoma MM200 (MTT); assay type: cell-based; conditions: 120 h, 5 days, Geometric Mean ± SD (Log-normal Distribution)
HT-29 = assay: Anti-cancer activity, colorectal HT-29 (MTT); assay type: cell-based; conditions: Homo sapiens, HT-29, 120 h, 5 days, Geometric Mean ± SD (Log-normal Distribution)
Description: (§1) The colon adeno-carcinoma cell line HT-29 (HTB-38™) and prostate adenocarcinoma cell line PC-3 (CRL-435™) were cultured in RPMI 1640 medium (Gibco, Cat#21870-076).
(§2) All cultures were supplemented with 10% FBS (Gibco, Cat#10099-158), 5000 U/ml penicillin and 5 mg/ml streptomycin (Gibco, Cat#15070), and cultured at 37° C. in a humidified atmosphere of 5% CO2.
(§3) IC50 values were determined for each cell line. Cells were seeded in 96-well plates at an appropriate cell density as determined from growth kinetics analysis and cultured for 5 days in the absence and presence of the test compounds. Cell proliferation was assessed after the addition of 20 μl of 3-4,5 dimethylthiazol-2,5-diphenyl tetrazolium bromide (MTT, 2.5 mg/ml in PBS, Sigma) for 3-4 hrs at 37° C. according to manufacturer's instructions. IC50 values were calculated from semi-log plots of % of control proliferation on the y-axis against log dose on the x-axis.

[1] = Free radical scavenging (DPPH); conditions: 0.1 mM DPPH in ethanol, 20 minutes, absorbance 517 nm; concentration causing 0.6 change in absorbance; read-out: Free radical scavenging ability EC50
Description: The antioxidant (free radical trapping) activity of test compounds was assessed using the stable free radical compound 2,2-diphenyl-1-picrylhydrazyl (DPPH). A stock solution of DPPH was prepared at a concentration of 0.1 mM in ethanol and mixed for 10 minutes prior to use. Test compounds at a concentration of 100 μM were reacted with DPPH for 20 minutes, after which time the absorbance at 517 nm was determined and the change in absorbance compared to a reagent blank (DPPH with ethanol alone). A dose response curve was produced for those compounds with free radical scavenging activity (ΔAbs>0.3) at 100 μM. The IC50 value was estimated as the concentration of test compound that caused a 0.6 change in absorbance (with 1.2 absorbance units representing total scavenging of the DPPH radical).

CP70 = assay: Anti-cancer activity, ovarian CP70 (MTT); assay type: cell-based; conditions: 5 days, Geometric Mean ± SD (Log-normal Distribution)
Description: The ovarian cancer cell line, CP70 was obtained as a gift from Dr. Gil Mor (Yale University) and routinely cultured in DMEM/Hams F-12 1:1 (Gibco, Cat#11320-082) supplemented with 10 mM HEPES (Sigma, Cat#H0887), 1× non essential amino acids (Sigma, Cat#M7145), 5.0 g/L sodium bicarbonate (Sigma, Cat#S5761), and 1 mM sodium pyruvate (Sigma, Cat#S8636).
as §2, §3

[2] = test system: Neonatal foreskin fibroblasts (NFF); assay: Toxicity to normal cells: neonatal foreskin fibroblasts (MTT); assay type: cell-based; conditions: Homo sapiens, Fibroblast, 120 h, 5 days, mean ± SD, maximum concentration 150 μM
Description: (§4) Neonatal foreskin fibroblasts (NFF), a gift from Dr. Peter Parsons (Queensland Institute of Medical Research) were cultured in RPMI supplemented with 10% FBS (Gibco, Australia), penicillin (100 U/ml), streptomycin ([…]), L-glutamine (2 mM) and sodium bicarbonate (1.2 g/L), and cultured at 37° C. in a humidified atmosphere of 5% CO2 for 5 days. Test compounds were added in serial two-fold dilutions from 150 μM in triplicate. These assays were run twice.
(§5) Cell proliferation was assessed after the addition of 20 μl of 3-4,5 dimethylthiazol-2,5-diphenyl tetrazolium bromide (MTT, 5 mg/ml in PBS, Sigma) for 3 hrs at 37° C. according to manufacturer's instructions, by comparing mean absorbance values of test compounds with that of the control.

NCI-H460 = assay: Anti-cancer activity, lung NCI-H460 (MTT); assay type: cell-based; conditions: Homo sapiens, NCI-H460, 120 h, 5 days, Geometric Mean ± SD (Log-normal Distribution)
Description: The large cell lung cancer cell line NCI-H460 was cultured in RPMI 1640 medium additionally supplemented with 4.5 g/L glucose (Sigma, Cat#G8769), 5.0 g/L sodium pyruvate, 5 g/L sodium bicarbonate and buffered with 10 mM HEPES.
as §2, §3

PC-3 = assay: Anti-cancer activity, prostate PC-3 (MTT); assay type: cell-based; conditions: Homo sapiens, PC-3, 120 h, 5 days, Geometric Mean ± SD (Log-normal Distribution)
Description: as §1, §2, §3

RAW 264.7 macrophage = assay: Toxicity to normal cells: RAW 264.7 macrophage (MTT); assay type: cell-based; conditions: Mus musculus, RAW264.7, 24 hours, single assay, maximum concentration 150 μM
Description: (§6) In a single assay, RAW 264.7 cells were seeded in 96-well plates at an appropriate cell density as determined from growth kinetics analysis and cultured for 24 hours in the absence and presence of the test compounds. Test compounds were added in serial two-fold dilutions from 150 μM in triplicate.
as §5

MDA-MB-468 = assay: Anti-cancer activity, breast MDA-MB-468 (MTT); assay type: cell-based; conditions: Homo sapiens, MDA-MB-468, 120 h, 5 days, Geometric Mean ± SD (Log-normal Distribution)
HPAC = assay: Anti-cancer activity, pancreatic HPAC (MTT); assay type: cell-based; conditions: Homo sapiens, 120 h, 5 days, Geometric Mean ± SD (Log-normal Distribution)
Description: The human pancreatic cancer cell line, HPAC (CRL-2119) was routinely cultured in DMEM/Hams F-12 1:1 (Gibco) and supplemented with 15 mM HEPES, 0.002 mg/ml insulin (Sigma, Cat#I9278), 0.005 mg/ml transferrin (Sigma, Cat#T8158), 40 ng/ml hydrocortisone (Sigma, Cat#H0135) and 10 ng/ml epidermal growth factor (Sigma, Cat#E4269).
as §2, §3

[3] = test system: various cell lines representative of different cancer indications; assay: Anti-cancer activity, summary over several cell lines; assay type: cell-based
Description: as §3

[4] = test system: panel of normal, non-transformed cells; assay: Toxicity to normal cells, overall statement (NFF and RAW 264.7); assay type: cell-based; conditions: maximum concentration examined 150 μM
Description: as §4, §6, §5

[5] = read-out: IC50 RAW 264.7 macrophage Unstimulated
[6] = read-out: IC50 RAW 264.7 macrophage with LPS
[7] = read-out: IC50 range against MDA-MB-468 and PC-3 cell lines

| Structure (SMILES) | IC50 (MM200) [µM] | IC50 (HT-29) [µM] | EC50 [1] [µM] | IC50 (CP70; 120 h) [µM] | IC50 [2] [µM] | IC50 (NCI-H460) [µM] | IC50 (PC-3) [µM] | IC50 (RAW 264.7 macrophage; [5]) [µM] | IC50 (RAW 264.7 macrophage; [6]) [µM] | IC50 (MDA-MB-468) [µM] | IC50 (HPAC) [µM] | IC50 ([3]; read-out: IC50 range against all cell lines tested) [µM] | toxicity in the tests performed [4] | IC50 [3, 7] [µM] | IC50 ([3]; read-out: IC50 range against CP70, MDA-MB-468, NCI-H460 and PC-3 cell lines) [µM] | IC50 (CP70) [µM] | activity against the cell lines tested ([3]; HPAC, MDA-MB-468 and PC-3) | melting point [°C] |
| --- | --- | --- | --- | --- | --- | --- | --- | --- | --- | --- | --- | --- | --- | --- | --- | --- | --- | --- |
| C=CCC1Oc2cc(O)ccc2C=C1c1ccc(O)cc1 (stereo not drawn) [Compound 1] | 6.37 ± 1.39 | 9.36 ± 2.88 | 22.8 | 8.39 ± 2.8 | 14.7 ± 3.05 | 6.72 ± 1.05 | 3.96 ± 2.02 | 4.7 | 2.2 | 3.25 ± 1.51 | 5.21 ± 1.88 | 3 to 10 | markedly toxic | – | – | – | – | – |
| CCC1Oc2cc(O)ccc2C=C1c1ccc(O)cc1 (stereo not drawn) [Compound 2] | 70.9 ± 1 | – | – | – | 97.8 ± 1 | – | 4.14 ± 1.04 | 15.2 | 90.6 | 2.41 ± 1.26 | 56 ± 1.03 | – | mild to moderate toxicity | 2 to 29 | – | – | – | – |
| CC1Oc2cc(O)ccc2C=C1c1ccc(O)cc1 (stereo not drawn) [Compound 3] | 69.4 ± 1.22 | 110.1 ± 1.03 | – | 8.39 ± 1.13 | 140.3 ± 1.07 | 12.6 ± 1.1 | 12 ± 1.22 | 9.3 | 102 | 5.18 ± 1.09 | 59.3 ± 1.28 | – | mild to moderate toxicity | – | 5 to 13 | – | – | – |
| CCC1Oc2cc(O)ccc2CC1c1ccc(O)cc1 (stereo not drawn) [Compound 4] | – | – | – | – | 122.2 ± 1 | – | 16.6 ± 1.08 | 28.3 | > 150 | 7.23 ± 1.07 | 103 ± 1.16 | – | mild to moderate toxicity | 2 to 29 | – | – | – | – |
| Cc1c(O)ccc2c1OC(C)C(c1ccc(O)cc1)=C2 (stereo not drawn) [Compound 5] | – | – | 44.8 | – | > 150 | 41.1 ± 1 | 29 ± 1.05 | > 150 | > 150 | 16.7 ± 1.18 | 84.4 ± 1.34 | – | no toxicity | 2 to 29 | – | – | – | – |
| CC1Oc2cc(O)ccc2C=C1c1cccc(O)c1 (stereo not drawn) [Compound 6] | 137.8 ± 1.16 | ≥ 150 | 49.6 | 72.9 ± 1.07 | 138.6 ± 1.05 | 114.8 ± 1 | 31.7 ± 1.05 | > 150 | 140 | 17 ± 1 | 74.6 ± 1.24 | – | mild to moderate toxicity | 14 to 32 | – | – | – | – |
| Cc1cc(O)cc2c1C=C(c1ccc(O)cc1)C(C)O2 (stereo not drawn) [Compound 7] | 102 ± 1.27 | ≥ 150 | 38.4 | ~31 | 126.6 ± 1.01 | 51.5 ± 1.03 | 31.9 ± 1.47 | 98.8 | 115 | 14.5 ± 1.07 | 60.5 ± 1.21 | – | mild to moderate toxicity | 14 to 32 | – | 31.1 ± 1.06 | – | – |
| CC1Oc2cc(O)ccc2CC1c1ccc(O)cc1 (stereo not drawn) [Compound 8] | – | – | – | – | > 150 | – | 78.7 ± 1.26 | > 150 | > 150 | 66.3 ± 1.05 | ≥ 150 | – | no toxicity | – | – | – | little activity | – |
| COC1Oc2cc(O)ccc2C=C1c1ccc(O)cc1 (stereo not drawn) [Compound 13, 4′,7-Dihydroxy-2-methoxy-isoflav-3-ene] | – | – | 21.8 | – | – | – | – | – | – | – | – | – | – | – | – | – | – | – |
| CCOC1Oc2cc(O)ccc2C=C1c1ccc(O)cc1 (stereo not drawn) [Compound 14, 2-Ethoxy-4′,7-dihydroxy-isoflav-3-ene] | – | – | 24.1 | – | – | – | – | – | – | – | – | – | – | – | – | – | – | – |
| Oc1ccc(C2=Cc3ccc(O)cc3OC2O)cc1 (stereo not drawn) [Compound 16, 2,4′,7-Trihydroxy-isoflav-3-ene] | – | – | – | – | – | – | – | – | – | – | – | – | – | – | – | – | – | > 325 |
| CCSC1Oc2cc(O)ccc2C=C1c1ccc(O)cc1 (stereo not drawn) [Compound 18, 2-Ethylthio-4′,7-dihydroxy-isoflav-3-ene] | – | – | 20 | – | – | – | – | – | – | – | – | – | – | – | – | – | – | – |
| CC(=O)Oc1ccc(C2=Cc3ccc(OC(C)=O)cc3OC2C#N)cc1 (stereo not drawn) [Example 17, 4′,7-Diacetoxy-2-cyano-isoflav-3-ene] | – | – | – | – | – | – | – | – | – | – | – | – | – | – | – | – | – | 156 to 158 |
| CC(=O)Oc1ccc(C2=Cc3ccc(OC(C)=O)cc3OC2CNC(=O)OC(C)(C)C)cc1 (stereo not drawn) [Example 23, 4′,7-Diacetoxy-2-(N—(BOC)aminomethyl)-isoflav-3-ene] | – | – | – | – | – | – | – | – | – | – | – | – | – | – | – | – | – | 52 to 54 |
